This is an account of results in paper PMC8434068, “An Evaluation of Understudied Phytocannabinoids and Their Effects in Two Neuronal Models” (Molecules, 2021).

This test deals with T1, CB1 receptor (Rattus norvegicus, UniProt P20272).
T1 construct: gene Cnr1
In words: Pink Flamindo cAMP assay in CB1-transfected HEK293 cells, antagonism of 2-AG; also reverses bath-applied 2-AG in autaptic neurons. Format: cell-based. For orientation: cAMP levels reflect the balance of adenylyl cyclase and phosphodiesterase activity.

T1 sequence (P20272 whole entry): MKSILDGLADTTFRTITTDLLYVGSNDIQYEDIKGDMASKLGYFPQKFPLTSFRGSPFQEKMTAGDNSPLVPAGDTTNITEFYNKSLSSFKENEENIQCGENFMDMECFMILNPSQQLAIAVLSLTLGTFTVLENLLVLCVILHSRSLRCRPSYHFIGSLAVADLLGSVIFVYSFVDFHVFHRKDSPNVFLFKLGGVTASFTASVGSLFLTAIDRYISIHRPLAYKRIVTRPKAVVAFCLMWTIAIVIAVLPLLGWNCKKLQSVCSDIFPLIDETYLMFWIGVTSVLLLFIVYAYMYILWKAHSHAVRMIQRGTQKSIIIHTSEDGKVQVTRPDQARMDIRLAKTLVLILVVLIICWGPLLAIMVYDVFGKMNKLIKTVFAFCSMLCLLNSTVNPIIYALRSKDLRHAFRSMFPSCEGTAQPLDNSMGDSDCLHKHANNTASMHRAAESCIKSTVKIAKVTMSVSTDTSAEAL

For orientation: IC50 means the concentration that inhibits the measured activity by half. Read a high IC50 as weaker potency in that assay. The molecule `CCCc1cc(O)c2c(c1)OC(C)(C)[C@@H]1CCC(C)=C[C@@H]21` [THCV, Δ^9-tetrahydrocannabivarin] yielded a 50% inhibitory concentration (IC50) of 7.3 nM. In other words, the single-digit nanomolar range.
